In article PMC4412466 (Supramolecular chemistry, 2014):

Experiments:
[1] = Phase solubility diagram of container with excess cinnarizine; assay type: physicochemical; settings: 50 mM NaOAc buffer, pD 4.74
[2] = Phase solubility diagram of container with excess albendazole; assay type: physicochemical; settings: 50 mM NaOAc buffer, pD 4.74
[3] = cited from earlier work
[4] = Phase solubility diagram of container with excess camptothecin; assay type: physicochemical; settings: 0.01 M DCl, pD 2.0

maximum [cinnarizine] obtained with container [1]: 13.7 mM
affinity toward albendazole (slope of phase solubility diagram), CB[7] versus 1 [2]: comparable
affinity toward camptothecin (slope of phase solubility diagram), CB[7] versus 1 [4]: comparable affinity
Substance: Cucurbit[7]uril [CB[7]]
solubility in water [3]: 20 to 30 mM
